Source: patent US8188121B2, “Substituted pyridines as antiparasitic AZA teraryl compounds” (The University of North Carolina at Chapel Hill, priority 2005, dated 2012)
Structures can show the parent of a compound that is named as a salt. Where two headings read alike, the source gives them in different places. Values belong to the molecule of their own block, whether it stands above or below them.

What was measured:
[1] = tested on: Trypanosoma brucei rhodesiense (T. b. r.); assay: In vitro antiprotozoal activity against T. b. r.; assay type: cell-based
Protocol: (§1) In vitro antiprotozoal activities were measured following established protocols. See Ismail, M. A., et al., J. Med. Chem., 46, 4761-4769 (2003); Stephens, C. E., et al., Bioorg. Med. Chem. Lett., 13, 2065-2069 (2003) (in vitro assay against Leishmania donovani).
(§2) Testing methods are as described above in Example 17.

[2] = tested on: Leishmania donovani (L. d.); assay: In vitro antiprotozoal activity against L. d.; assay type: cell-based; conditions: read-out: L. d. IC50
Protocol: as §1, §2

L-6 rat mycoblast cells = assay: cells
Protocol: as §1, §2

[3] = tested on: STIB 900 strain of Trypanosoma brucei rhodesiense; assay: T. b. r. STIB 900 mouse model; assay type: in vivo; conditions: for responders at 20 mg/kg: Trypanosoma brucei, 1440 h, mice surviving parasite free for 60 days, groups of four, read-out: Cures (converted)
Protocol: The activities of compounds 20, 18, 21, 48, 23c, 24c, 5, 4, and 10 against the STIB 900 strain of Trypanosoma brucei rhodesiense (T. b. r.) in a mouse model are shown in Table 3. […] Groups of four mice were infected intraperitoneally with 2×10^5 bloodstream forms of T. b. r. STIB 900 which originates from a patient in Tanzania. On days 3, 4, 5, and 6 post-infection the experimental groups were treated with the indicated compound, either by the intraperitoneal route, or for prodrugs, by the oral route. Usually the highest tolerated dose was used. The highest tolerated dose was determined in a pretoxicological experiment.
Parasitemia of the mice was checked daily up to day 14 post-infection and thereafter 2 times per week up to day 60. One group of mice was not treated and acted as control. Untreated control animals expire between day 7 and 8 post-infection. For relapsing mice, the day of death was recorded and the survival time determined. For the data shown in Table 3, cures reflect the number of mice that survive and are parasite free for 60 days. Survival reflects the average days of survival.
as §2

[4] = tested on: Plasmodium falciparum (P. f.); assay: In vitro antiprotozoal activity against P. f.; assay type: cell-based
Protocol: as §1, §2

DNA minor groove = assay: ΔTm of linear triaryl dications (DNA minor groove binding)
[5] = Trypanosoma brucei, RHODESIENSE, Table 1, k/K = thousand, read-out: T. b. r. IC50
[6] = Rattus norvegicus, L6, read-out: CT IC50
[7] = 20 mg/kg ip, days 3-6 post-infection, average days of survival
[8] = 20 mg/kg ip, days 3-6 post-infection
[9] = Plasmodium falciparum, Table 1, k/K = thousand
[10] = Table 1, k/K = thousand, read-out: T. b. r. IC50
[11] = Table 2, K = thousand, read-out: T. b. r. IC50
[12] = Rattus norvegicus, L6, read-out: CT IC50, Table 4, L-6 cells

SMILES: CC(=O)O.N=C(N)c1ccc(-c2ccc(-c3ccc(C(=N)N)o3)cc2)o1
- melting point: 228 to 230 °C

- melting point: 217 to 218 °C
SMILES: CONC(=N)c1ccc(-c2cnc(-c3ccc(C(=N)NOC)cc3)nc2)cc1 (as salt: hydrochloride) [Compound 29, 2,5-Bis-[4′-(N-methoxyamidino)phenyl]-pyrimidine]

- melting point: 194 to 195 °C
SMILES: N=C(NO)c1ccc(-c2ccc(-c3ccc(C(=N)NO)o3)cn2)cc1 [Compound 9, N-Hydroxy-5-{6-[4-(N-hydroxyamidino)-phenyl]-pyridin-3-yl}-furan-2-carboxamidine]

SMILES: CC(=O)O.N=C(N)c1ccc(-c2ccc(-c3ccc(C(=N)N)o3)cn2)cc1 [Compound 10, 5-[6-(4-Amidinophenyl)-pyridin-3-yl]-furan-2-carboxamidine acetate salt]
- IC50 [1, 5]: 0.002 µM
- IC50 ([2]; Leishmania donovani, Table 1): 20.5 µM
- IC50 (L-6 rat mycoblast cells; [6]): 30.9 µM
- Survival [3, 7]: >53.5 days
- responders at 20 mg/kg [3, 8]: 75%
- IC50 [4, 9]: 0.0052 µM

- melting point: > 300 °C
SMILES: N=C(NO)c1ccc(-c2ccc(-c3ccc(C(=N)NO)o3)cc2)o1 [Compound 13, N-Hydroxy-5-{4-[5-(N-hydroxyamidino)-furan-2-yl]-phenyl}-furan-2-carboxamidine]

SMILES: CC(=O)O.N=C(N)c1ccc(-c2ccc(-c3ccc(C(=N)N)cc3)cc2)cc1 [Compound 20, [1,1′;4′,1″]Terphenyl-4,4″-bis-carboxamidine acetate salt]
- IC50 [1, 5]: 0.005 µM
- ΔTm (DNA minor groove; Table 1): 19.1 °C
- IC50 (L-6 rat mycoblast cells; [6]): 22.1 µM
- Survival [3, 7]: 52.5 days
- responders at 20 mg/kg [3, 8]: 0%
- IC50 [4, 9]: 0.001 µM

SMILES: Cl.N=C(N)c1ccc(-c2ccc(-c3ccc(C(=N)N)cc3)c(F)c2)cc1 [Compound 23a, 2′-Fluoro-[1,1′;4′,1″]terphenyl-4,4″-bis-amidine hydrochloride salt]
- IC50 [1, 5]: 0.002 µM
- ΔTm (DNA minor groove; Table 1): 15.1 °C
- IC50 ([2]; Leishmania donovani, Table 1): 0.34 µM
- IC50 (L-6 rat mycoblast cells; [6]): 6.4 µM
- IC50 [4, 9]: 0.001 µM

SMILES: Cl.N=C(N)c1ccc(-c2ccc(-c3ccc(C(=N)N)cc3)c(C(F)(F)F)c2)cc1 [Compound 23b, 2′-Trifluoromethyl-[1,1′;4′,1″]terphenyl-4,4″-bis-amidine hydrochloride salt]
- IC50 [1, 5]: 0.048 µM
- ΔTm (DNA minor groove; Table 1): 10.1 °C
- melting point: > 300 °C
- IC50 ([2]; Leishmania donovani, Table 1): 3 µM
- IC50 (L-6 rat mycoblast cells; [6]): 9 µM
- IC50 [4, 9]: 0.015 µM

- melting point: 290 to 292 °C
SMILES: N=C(NO)c1ccc(-c2cnc(-c3ccc(C(=N)NO)cc3)nc2)cc1 [Compound 28, 2,5-Bis-[4′-(N-hydroxyamidino)phenyl]-pyrimidine]

- IC50 [1, 10]: 0.047 µM
- IC50 ([2]; Table 1): > 100 µM
- IC50 ([4]; Table 1, k/K = thousand): 0.01 µM
SMILES: N=C(N)c1ccc(-c2ccc(-c3ccc(C(=N)N)cn3)cc2)nc1 [Compound 31, 1,4-Bis-(5′-amidinopyridin-2′-yl)-phenylene]

- IC50 [1, 11]: 0.175 µM
- IC50 ([2]; Table 2): 12.9 µM
- IC50 (L-6 rat mycoblast cells): 7.3 µM
- IC50 ([4]; Table 2, K = thousand): 0.021 µM
SMILES: N=C(N)c1ccc(-c2ccc(-c3ccc(C(=N)N)cc3)c3ccccc23)cc1 [Compound 38a, Phenyl[1,1]napthyl[4′,1″]phenyl-4,4″-bis-amidine]

- IC50 [1, 11]: 0.053 µM
- ΔTm (DNA minor groove; Table 2): 18.2 °C
- IC50 ([2]; Table 2): 0.28 µM
- IC50 (L-6 rat mycoblast cells): 8 µM
- IC50 ([4]; Table 2, K = thousand): 0.019 µM
SMILES: N=C(N)c1ccc(-c2ccc3cc(-c4ccc(C(=N)N)cc4)ccc3c2)cc1 [Compound 38b, Phenyl[1,2′]naphthyl[6′,1″]phenyl-4,4″-bis-amidine]

SMILES: N=C(N)Nc1ccc(-c2ccc(-c3ccc(NC(=N)N)cc3)cc2)cc1 [Compound 48, 4,4″-Bis-guanidino-[1,1′;4′,1″]terphenyl]
- IC50 [1, 5]: 0.018 µM
- ΔTm (DNA minor groove; Table 1): 12.2 °C
- IC50 ([2]; Leishmania donovani, Table 1): 1.2 µM
- IC50 (L-6 rat mycoblast cells; Rattus norvegicus, L6, read-out: CT IC50, Table 1, L-6 cells): 25.4 µM
- Survival [3, 7]: >60 days
- responders at 20 mg/kg [3, 8]: 0%
- IC50 [4, 9]: 0.027 µM

- IC50 [1, 10]: 0.53 µM
- IC50 ([2]; Table 1): 7.2 µM
- IC50 ([4]; Table 1, k/K = thousand): 0.014 µM
SMILES: CC(C)N=C(N)Nc1ccc(-c2ccc(-c3ccc(NC(N)=NC(C)C)cc3)cc2)cc1 [Compound 51b, 4,4″-Bis(N′-isopropyl)-guanidino-[1,1′;4′,1″]terphenyl]
- IC50 (L-6 rat mycoblast cells; read-out: CT IC50, Table 1, L-6 cells): 21.9 µM

SMILES: N=C(N)c1ccc(-c2ccc(-c3ccc(C(=N)N)nc3)cc2)cn1 [Compound 66, 1,4-Bis-(2′-amidinopyridin-5′-yl)-phenylene hydrochloride salt]
- ΔTm (DNA minor groove; Table 1): 16.1 °C
- IC50 ([2]; Leishmania donovani, Table 1): 0.72 µM
- IC50 ([2]; Leishmania donovani, Table 4): 0.063 µM
- IC50 (L-6 rat mycoblast cells; [6]): 31.3 µM
- IC50 (L-6 rat mycoblast cells; [12]): 1.2 µM
- Cures ([3]; 5 mg/kg ip, Table 5): 0/4
- Survival ([3]; 5 mg/kg ip, Table 5): > 51.5 days

SMILES: N=C(N)c1cnc(-c2ccc(-c3cnc(C(=N)N)cn3)cc2)cn1 [Compound 71, 1,4-Bis-(2′-amidinopyrazin-5′-yl)-phenylene hydrochloride salt]
- IC50 ([2]; Leishmania donovani, Table 4): 10 µM
- IC50 (L-6 rat mycoblast cells; [12]): 46.5 µM
- IC50 ([4]; Plasmodium falciparum, Table 4): 5.17 µM

- IC50 ([2]; Leishmania donovani, Table 4): 1.72 µM
SMILES: N=C(N)c1ncc(-c2ccc(-c3cnc(C(=N)N)nc3)cc2)cn1 [Compound 73, 1,4-Bis-(2′-amidinopyrimidin-5′yl)-phenylene hydrochloride salt]

SMILES: N=C(N)c1ccc(-c2cnc(-c3ccc(C(=N)N)cc3)cn2)cc1 [Compound 75, 2,5-Bis-(4′-amidinophenyl)-pyrazine hydrochloride salt]
- IC50 ([1]; Trypanosoma brucei, RHODESIENSE, read-out: T. b. IC50): 0.018 µM
- IC50 ([2]; Leishmania donovani): 0.562 µM
- IC50 (L-6 rat mycoblast cells; [12]): 42.5 µM

- IC50 ([2]; Leishmania donovani, Table 4): 1.83 µM
SMILES: N=C(N)c1ccc(-c2cnc(-c3ccc(C(=N)N)nc3)nc2)cn1 [Compound 77, 2,5-Bis-(2′-amidinopyridin-5′-yl)-pyrimidine hydrochloride salt]

SMILES: N=C(N)c1ccc(-c2ccc(-c3ccc(C(=N)N)nc3)cc2)cc1 [Compound 80, Phenyl[1,1′]phenyl[4′,5″]pyridinyl-4,2″-bis-amidine hydrochloride salt]
- IC50 ([2]; Leishmania donovani, Table 4): 0.084 µM
- IC50 (L-6 rat mycoblast cells; [12]): 2.8 µM

SMILES: N=C(N)c1ccc(-c2ccc(-c3ccc(C(=N)N)cn3)cc2)cc1 [Compound 83, Phenyl[1,1′]phenyl[4′,2″]pyridinyl-4,5″-bis-amidine hydrochloride salt]
- IC50 ([2]; Leishmania donovani, Table 4): 1.37 µM
- IC50 (L-6 rat mycoblast cells; [12]): 26.7 µM

- IC50 ([2]; Leishmania donovani, Table 4): 0.19 µM
SMILES: N=C(N)c1ccc(-c2ccc(-c3cnc(C(=N)N)nc3)cc2)cc1 [Compound 86, Phenyl[1,1′]phenyl[4′,5″]pyrimidinyl-4,2″-bis-amidine hydrochloride salt]

SMILES: N=C(N)c1ccc(-c2ccc(-c3ccc(C(=N)N)nc3)cn2)cc1 [Compound 89, Phenyl[1,2′]pyridinyl[5′,5″]pyridinyl-4,2″-bis-amidine hydrochloride salt]
- IC50 ([1]; Trypanosoma brucei, RHODESIENSE, Table 4, read-out: T. b. IC50): 0.006 µM
- IC50 ([2]; Leishmania donovani, Table 4): 0.51 µM
- IC50 (L-6 rat mycoblast cells; [12]): 19.9 µM
- Cures ([3]; 5 mg/kg ip, Table 5): 3/4
- Survival ([3]; 5 mg/kg ip, Table 5): > 60 days
- IC50 ([4]; Plasmodium falciparum, Table 4): 0.001 µM

SMILES: N=C(N)c1ccc(-c2ccc(-c3ccc(C(=N)N)cn3)cn2)cc1 [Compound 94, Phenyl[1,2′]pyridinyl[5′,2″]pyridinyl-4,5″-bis-amidine hydrochloride salt]
- IC50 ([2]; Leishmania donovani, Table 4): 6.82 µM
- IC50 (L-6 rat mycoblast cells; [12]): 28.3 µM
- Survival ([3]; 5 mg/kg ip, Table 5): > 60 days
- IC50 ([4]; Plasmodium falciparum, Table 4): 0.003 µM

SMILES: N=C(N)c1ccc(-c2ccc(-c3cnc(C(=N)N)cn3)cn2)cc1 [Compound 97, Phenyl[1,2′]pyridinyl[5′,5″]pyrazinyl-4,2″-bis-amidine hydrochloride salt]
- IC50 ([2]; Leishmania donovani, Table 4): 15.6 µM
- IC50 (L-6 rat mycoblast cells; [12]): 93.4 µM

- IC50 ([2]; Leishmania donovani, Table 4): 2.64 µM
SMILES: N=C(N)c1ccc(-c2ccc(-c3cnc(C(=N)N)nc3)cn2)cc1 [Compound 100, Phenyl[1,2′]pyridinyl[5′,5″]pyrimidinyl-4,2″-bis-amidine hydrochloride salt]
